Measurements reported in PubChem BioAssay (NCI).
Values joined by “and” are separate entries in the source; they are usually repeats but may differ in a detail not shown here. Equal values may be shown once.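 Five concentrations, 48 hours, 96-well plates. GI50 marks 50% less growth. TGI: concentration producing complete growth inhibition.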

Assays:
Experiment in all cases: NCI anticancer screen, dose series, 48 h
ACHN renal = system: ACHN renal
DU-145 prostate = system: DU-145 prostate
SK-MEL-28 melanoma = system: SK-MEL-28 melanoma
MOLT-4 leukemia = system: MOLT-4 leukemia
TK-10 renal = system: TK-10 renal
HL-60(TB) leukemia = system: HL-60(TB) leukemia
SF-268 CNS = system: SF-268 CNS
PC-3 prostate = system: PC-3 prostate
SNB-19 CNS = system: SNB-19 CNS
SNB-75 CNS = system: SNB-75 CNS

Row | SMILES | GI50 (ACHN renal) [µM] | TGI (ACHN renal) | GI50 (DU-145 prostate) [µM] | TGI (DU-145 prostate) [µM] | GI50 (SK-MEL-28 melanoma) [µM] | TGI (SK-MEL-28 melanoma) [µM] | GI50 (MOLT-4 leukemia) [µM] | TGI (MOLT-4 leukemia) [µM] | GI50 (TK-10 renal) [µM] | TGI (TK-10 renal) | GI50 (HL-60(TB) leukemia) [µM] | TGI (HL-60(TB) leukemia) [µM] | GI50 (SF-268 CNS) [µM] | TGI (SF-268 CNS) [µM] | GI50 (PC-3 prostate) [µM] | TGI (PC-3 prostate) | GI50 (SNB-19 CNS) [µM] | TGI (SNB-19 CNS) | GI50 (SNB-75 CNS) [µM] | TGI (SNB-75 CNS)
1 | O=C(CCCCCCN1CC(=O)N2[C@@H](c3ccc(Cl)c(Cl)c3)c3[nH]c4ccccc4c3C[C@H]2C1=O)NO | 5.34 | 12.9 µM | 4.01 | 15.3 | 3.54 | 9.52 | 1.12 | 17.3 | 3.51 | 10.2 µM | 1.11 | 4.32 | 4.66 | 10.5 | 2.39 | 10.7 µM | 4.54 | 12.5 µM | 0.832 | 7 µM
2 | Cc1cc(N=Nc2ccccc2C)ccc1N | 14.7 | 28.7 µM and 45.8 µM | 9.35 | 27.2 | – | 44.3 | 0.967 | > 100 | 15.5 | 49.3 µM and 72 µM | 0.486 | – | 4.36 | 33.6 | 5.99 | 26.8 µM and 91.5 µM | 16.4 | > 100 µM and 56 µM | 4.1 | 28.1 µM and 31.9 µM
3 | O=C(O)Cc1cccnc1 | – | > 100 µM | – | > 100 | – | > 100 | – | > 100 | – | > 100 µM | – | – | – | > 100 | – | > 100 µM | – | > 100 µM | – | > 100 µM
4 | O=[N+]([O-])c1ccc(N2CCOCC2)c2c1no[n+]2[O-] | 0.528 | 3.15 µM | 1.42 | 5.76 | 4.32 | 16 | 0.85 | 3.43 | 3.85 | 16.7 µM | 0.632 | 2.52 | 0.939 | 3.03 | 1.25 | 5.53 µM | 3.74 | 16.4 µM | 0.822 | 5.56 µM
5 | O=C(/C=C/c1cccc(O)c1)c1cccc(-n2cc(-c3ccccc3)[nH]c2=O)c1 | 2.72 | 7.4 µM | 3.15 | 10.3 | 8.07 | 20.6 | 3.38 | > 27.3 | 2.43 | 6.89 µM | 3.27 | 17.5 | 3.66 | 12.3 | 2.82 | 11.1 µM | 6.58 | 18.6 µM | 5.7 | 18.2 µM
6 | Oc1c(I)cc(I)c2cccnc12 | 4.19 | 26.8 µM | 8.25 | 58 | 13.2 | > 100 | 7.53 | > 100 | 1.68 | 20.2 µM | 6.82 | > 100 | 5.09 | 48.3 | 4.68 | > 100 µM | 3.33 | 22.5 µM | 15.3 | > 100 µM
7 | N#CC1=C(/N=C/c2ccccc2)Oc2c(ccc3ccccc23)C1c1ccccc1 (stereo not drawn) | 0.591 | > 100 µM | 0.735 | > 64.3 | – | > 100 | 0.935 | > 100 | 13.7 | > 100 µM | 0.295 | 0.991 | 1.02 | > 100 | 0.477 | > 100 µM | 0.702 | > 100 µM | – | –
8 | C[CH2][Sn]([CH2]C)([O]C(=O)c1ccccc1OC)[O][Sn]([CH2]C)([CH2]C)[O]C(=O)c1ccccc1OC | > 100 | > 100 µM | – | – | > 100 | > 100 | > 100 | > 100 | > 100 | > 100 µM | > 100 | > 100 | > 100 | > 100 | – | – | > 100 | > 100 µM | > 100 | > 100 µM
9 | COc1cc2c(cc1OCCCCN1CCN(C(=S)SCCC(C#N)(c3ccccc3)c3ccccc3)CC1)N=C[C@@H]1CCCN1C2=O | – | – | – | – | – | – | – | – | 1.26 | 3.04 µM | 0.324 | 1.57 | – | – | 0.697 | 2.41 µM | 1.67 | 3.98 µM | 1.64 | 3.68 µM
10 | Cc1ccc(C)c(N2C(=O)C(=O)C(c3nc4ccccc4s3)/C(=N/NC(=O)NN)C2=O)c1 (stereo not drawn) | – | > 100 µM | – | – | – | > 100 | – | > 100 | – | > 100 µM | – | > 100 | – | > 100 | – | – | – | > 100 µM | – | > 100 µM
11 | O=C(O)c1cccc(C(=O)O)c1S(=O)Cc1ccccc1 (stereo not drawn) | – | > 100 µM | – | > 100 | – | > 100 | – | – | – | > 100 µM | – | > 100 | – | > 100 | – | > 100 µM | – | > 100 µM | – | > 100 µM
12 | Cc1nc(C(=O)O)c2ccccc2n1 | – | > 100 µM | – | – | – | > 100 | – | > 100 | – | > 100 µM | – | > 100 | – | > 100 | – | – | – | > 100 µM | – | > 100 µM
13 | C=CNC(=O)NC(=O)CSc1nnc(-c2ccccc2NC(=O)C(F)(F)F)c(=O)[nH]1 | – | – | – | – | – | > 100 | – | > 100 | – | > 100 µM | – | – | – | > 100 | – | – | – | > 100 µM | – | 0.968 µM
14 | COCOCC/C=C/C=O | – | > 100 µM | – | – | – | > 100 | – | > 100 | – | > 100 µM | – | > 100 | – | > 100 | – | – | – | > 100 µM | – | > 100 µM
15 | NC(=O)NNC(=O)NC12CC3CC(CC(C3)C1)C2 | – | > 100 µM | – | – | – | > 100 | – | > 100 | – | > 100 µM | – | > 100 | – | > 100 | – | – | – | > 100 µM | – | > 100 µM
16 | Cc1ccc(/C(C#N)=C/c2cccc([N+](=O)[O-])c2)cc1 | – | > 100 µM | – | > 100 | – | > 100 | – | – | – | > 100 µM | – | – | – | > 100 | – | > 100 µM | – | > 100 µM | – | 39.6 µM
17 | N#CC(c1ccccn1)c1nc2ccccc2[nH]1 (stereo not drawn) | – | > 100 µM | – | – | – | > 100 | – | > 100 | – | > 100 µM | – | > 100 | – | > 100 | – | – | – | > 100 µM | – | > 100 µM
